8 molecules from article PMC5242348, “Triterpene Constituents of Euphorbia Erythradenia Bioss. and their Anti-HIV Activity” (Iranian Journal of Pharmaceutical Research : IJPR, 2016) can be followed below.

The term CC50 denotes the concentration giving 50% cytotoxicity. Read a high CC50 as lower toxicity to the cells.

For data set [1], the system named is single cycle replicable HIV-1 (SCR HIV-1) virions. Kind of data set: microbe, parasite or virus in culture. Particulars: Human immunodeficiency virus 1, HeLa, 48 h, read-out: Anti HIV activity IC50 (concentration causing 50% HIV activity inhibition).
Data set [2] has the same test system. Particulars: ratio of CC50 (Hela, XTT) to IC50 (p24). For orientation: Formazan colour is commonly taken as a measure of viable cells.
The nature of data set [3]: XTT-based cytotoxicity assay. Particulars: human.

As for `C=C(C)C(O)CCC(C)C1CC[C@@]2(C)C3CCC4C(C)(C)[C@@H](O)CC[C@@]45C[C@@]35CC[C@]12C` (stereo partly shown) [1a & 1b], in data set [1], the IC50 amounted to 0.003 µM. Moreover, the “Therapeutic index TI (CC50/IC50)” value in data set [2] worked out at 4.67. The molecule also registered a CC50 at 3 days in data set [3] (HeLa cells) of 0.014 µM.
Take `CC(C/C=C\C(C)(C)O)C1CC[C@@]2(C)C3CCC4C(C)(C)[C@@H](O)CC[C@@]45C[C@@]35CC[C@]12C` (stereo partly drawn) [Compound 2, Cycloart-23-ene-3β,25-diol]: the IC50 in data set [1] is 0.006 µM. Besides, the “Therapeutic index TI (CC50/IC50)” value in data set [2] was determined as 3.67. The molecule also returned a CC50 at 3 days in data set [3] (HeLa cells) of 0.022 µM.
For the molecule `CC1(C)CC[C@]2(C(=O)O)CC[C@]3(C)C(=CC[C@@H]4[C@@]5(C)CC[C@H](O)C(C)(C)[C@@H]5CC[C@]43C)[C@@H]2C1` [Compound 4, Oleanolic acid], the IC50 in data set [1] worked out at 0.009 µM. The “Therapeutic index TI (CC50/IC50)” value in data set [2] amounted to 2.44. Also, the CC50 at 3 days in data set [3] came to 0.022 µM.
On to `CC=C(C)C(=O)OC1C(COC(=O)c2cccnc2)C(O)C2C(=O)C3(CC(C)C(OC(=O)CCC)C13)C(C)(O)CC1(OC(C)=O)C2C1(C)C` (stereo not shown) [Compound 5, 13-acetyl-3-butanoyl-5-angeloyl-20-nicotinyl-1,2,6,7-tetrahydroingenol], for which the IC50 in data set [1] is 0.036 µM. The “Therapeutic index TI (CC50/IC50)” value in data set [2] stood at 0.11. Also, in data set [3], the midpoint of cytotoxicity, the CC50 at 3 days, lay at 0.004 µM.
In the same order, the values of `CC=C(C)C(=O)OC1C(COC(=O)c2cccnc2)C(OC(C)=O)C2C(=O)C3(CC(C)C(OC(=O)CC)C13)C(C)(O)CC1(OC(C)=O)C2C1(C)C` (stereo not shown) [Compound 6, 7,13-diacetyl-5-angeloyl-20-nicotinyl-3-propionyl-1,2,6,7-tetrahydroingenol] are 0.007 µM, 11.75 and 0.084 µM.
Regarding `CCC(=O)OC1C(C)CC23C(=O)C(C(OC(=O)c4ccccc4)C(COC(=O)c4cccnc4)C(OC(C)=O)C12)C1C(C)(C)C1(OC(C)=O)CC3(C)O` (stereo not shown) [Compound 7, 5,13-diacetyl-7-benzoyl-20-nicotinyl-3-propionyl-1,2,6,7-tetrahydroingenol], the IC50 in data set [1] came out at 0.008 µM. The same molecule registered a CC50 at 3 days in data set [3] of 3.26 µM.
Regarding `CC=C(C)C(=O)OC1C(CO)C(O)C2C(=O)C3(CC(C)C(OC(=O)CCC)C13)C(C)(OC(=O)c1cccnc1)CC1(OC(C)=O)C2C1(C)C` (stereo not shown) [Compound 8, 13-acetyl-5-angeloyl-11-nicotinyl-3-butanoyl-1,2,6,7-tetrahydroingenol], the IC50 in data set [1] came out at 0.044 µM. In data set [3], this molecule returned a CC50 at 3 days of 0.168 µM.
For `Cc1ccnc2c1NC(=O)c1cccnc1N2C1CC1` [Nevirapine, reference compound], the IC50 in data set [1] was less than 0.064 µM. Also, the “Therapeutic index TI (CC50/IC50)” value in data set [2] is listed as more than 105.31. Also, it took 6.74 µM to reach half-maximal cytotoxicity in data set [3] (CC50 at 3 days).
